Experimental findings from ChEMBL document CHEMBL1134176, “Structure-activity relationships of novel anti-malarial agents. Part 2: cinnamic acid derivatives” (Bioorg Med Chem Lett, 2001) are described below.

The subject of the experiment is Plasmodium falciparum. Nature of the experiment: Inhibitory activity against Plasmodium falciparum Dd2 in erythrocytes. It is filed as functional, organism-based.
In the case of `Cc1ccc(CC(=O)Nc2ccc(NC(=O)/C=C/c3ccc(C(C)(C)C)cc3)cc2C(=O)c2ccccc2)cc1`, the IC50 (in general, the point on the concentration scale where inhibition reaches its midpoint) came to 3000 nM.
The result for `C=C[C@H]1CN2CC[C@H]1C[C@H]2[C@H](O)c1ccnc2ccc(OC)cc12` [QUININE] reads 380 nM; that for `Cc1ccc(CC(=O)Nc2ccc(NC(=O)/C=C/c3ccc(C(C)C)cc3)cc2C(=O)c2ccccc2)cc1`, 1200 nM; that for `Cc1ccc(CC(=O)Nc2ccc(NC(=O)/C=C/c3ccc(N)cc3)cc2C(=O)c2ccccc2)cc1`, 5500 nM.
Then `CC1(C)N=C(N)N=C(N)N1c1ccc(Cl)cc1` [CYCLOGUANIL], with 2200 nM; and `COC(=O)c1ccc(/C=C/C(=O)Nc2ccc(NC(=O)Cc3ccc(C)cc3)c(C(=O)c3ccccc3)c2)cc1`, with 1000 nM.
In turn, `Cc1ccc(CC(=O)Nc2ccc(NC(=O)/C=C/c3ccc(C=O)cc3)cc2C(=O)c2ccccc2)cc1` showed a 50% inhibitory concentration (IC50) of 40000 nM.
Then `CCOc1ccc(/C=C/C(=O)Nc2ccc(NC(=O)Cc3ccc(C)cc3)c(C(=O)c3ccccc3)c2)cc1`, with 850 nM; and `CCCCOc1ccc(/C=C/C(=O)Nc2ccc(NC(=O)Cc3ccc(C)cc3)c(C(=O)c3ccccc3)c2)cc1`, with 1100 nM; and `COc1ccc(/C=C/C(=O)Nc2ccc(NC(=O)Cc3ccc(C)cc3)c(C(=O)c3ccccc3)c2)cc1`, with 1300 nM.
Take `OC(c1cc(C(F)(F)F)nc2c(C(F)(F)F)cccc12)C1CCCCN1` (stereo unspecified) [MEFLOQUINE]: half-maximal inhibition (IC50) was put at 57 nM.
The result for `CCc1nc(N)nc(N)c1-c1ccc(Cl)cc1` [PYRIMETHAMINE] reads 2500 nM.
With `Cc1ccc(CC(=O)Nc2ccc(NC(=O)/C=C/c3ccc(C(F)(F)F)cc3)cc2C(=O)c2ccccc2)cc1`, the concentration for half-maximal inhibition (IC50) was determined as 5700 nM.
Consider `CCCOc1ccc(/C=C/C(=O)Nc2ccc(NC(=O)Cc3ccc(C)cc3)c(C(=O)c3ccccc3)c2)cc1`, for which inhibition was half-maximal at 200 nM (IC50).
Then `Cc1ccc(CC(=O)Nc2ccc(NC(=O)/C=C/c3ccc(C#N)cc3)cc2C(=O)c2ccccc2)cc1`, with more than 100000 nM; and `Cc1ccc(CC(=O)Nc2ccc(NC(=O)/C=C/c3ccc([N+](=O)[O-])cc3)cc2C(=O)c2ccccc2)cc1`, with 6500 nM; and `CCCCN(CCCC)CCC(O)c1cc2c(Cl)cc(Cl)cc2c2cc(C(F)(F)F)ccc12` (stereo unspecified) [HALOFANTRINE], with 9.3 nM.
Turning to `Cc1ccc(CC(=O)Nc2ccc(NC(=O)/C=C/c3ccc(Cl)cc3)cc2C(=O)c2ccccc2)cc1`, 5500 nM corresponded to half-maximal inhibition (IC50).
The result for `Cc1ccc(CC(=O)Nc2ccc(NC(=O)/C=C/c3ccccc3)cc2C(=O)c2ccccc2)cc1` reads 5800 nM; that for `O=C1C(O)=C([C@H]2CC[C@H](c3ccc(Cl)cc3)CC2)C(=O)c2ccccc21` [ATOVAQUONE], 1 nM.
Then `Cc1ccc(CC(=O)Nc2ccc(NC(=O)CCc3ccccc3)cc2C(=O)c2ccccc2)cc1`, with 2700 nM; and `C[C@@H]1CC[C@H]2[C@@H](C)C(=O)O[C@@H]3O[C@@]4(C)CC[C@@H]1[C@]32OO4` [ARTEMISININ], with 18 nM; and `Cc1ccc(CC(=O)Nc2ccc(NC(=O)/C=C/c3ccc(C=C(C#N)C#N)cc3)cc2C(=O)c2ccccc2)cc1`, with 43000 nM.
As for `Cc1ccc(/C=C/C(=O)Nc2ccc(NC(=O)Cc3ccc(C)cc3)c(C(=O)c3ccccc3)c2)cc1`, the half-inhibitory concentration (IC50) is 1400 nM.
The result for `CCc1ccc(/C=C/C(=O)Nc2ccc(NC(=O)Cc3ccc(C)cc3)c(C(=O)c3ccccc3)c2)cc1` reads 1200 nM.
Molecule `Cc1ccc(CC(=O)Nc2ccc(NC(=O)/C=C/c3ccc(Br)cc3)cc2C(=O)c2ccccc2)cc1` returned an IC50 of 3200 nM.
